Assay results: ChEMBL document CHEMBL1201862, “PubChem BioAssay data set” (2004)
Activity calls are given as the source filed them.

What was measured:
[1] = viability of uninfected HEp-2 cells – cell-based, HTS, cytotoxicity control for RSV inhibitor project, dose response (AID 2410); format: functional; conditions: human respiratory syncytial virus
[2] = molecular target: T1, Heat shock factor protein 1 (Mus musculus, UniProt P38532); assay: decrease of HSF1-responsive luciferase luminescence – cell-based, NIH3T3, dose retest, confirmation (AID 2382); format: functional;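 note: NIH3T3 fibroblasts with HSF1-driven luciferase reporter stressed by proteasome inhibitor MG132; luminescence from HSF1-driven luciferase expression after 8 hours of MG132 stress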
T1 sequence (P38532 whole entry): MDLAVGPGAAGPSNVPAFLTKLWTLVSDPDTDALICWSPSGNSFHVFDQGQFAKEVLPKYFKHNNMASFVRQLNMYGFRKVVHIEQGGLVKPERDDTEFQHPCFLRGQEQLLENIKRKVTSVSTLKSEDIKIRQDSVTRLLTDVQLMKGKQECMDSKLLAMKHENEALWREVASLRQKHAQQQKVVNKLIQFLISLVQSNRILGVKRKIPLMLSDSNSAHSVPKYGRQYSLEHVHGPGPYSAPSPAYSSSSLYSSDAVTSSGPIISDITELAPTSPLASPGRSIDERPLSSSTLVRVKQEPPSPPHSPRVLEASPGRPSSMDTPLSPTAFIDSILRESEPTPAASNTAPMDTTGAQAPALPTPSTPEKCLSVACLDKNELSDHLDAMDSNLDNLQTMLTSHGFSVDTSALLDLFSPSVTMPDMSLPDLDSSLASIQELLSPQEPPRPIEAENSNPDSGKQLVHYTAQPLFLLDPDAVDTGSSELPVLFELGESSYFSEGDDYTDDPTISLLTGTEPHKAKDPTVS

[3] = molecular target: T2, Tyrosine-protein phosphatase non-receptor type 7 (Homo sapiens, UniProt P35236); format: functional
T2 sequence (P35236 whole entry): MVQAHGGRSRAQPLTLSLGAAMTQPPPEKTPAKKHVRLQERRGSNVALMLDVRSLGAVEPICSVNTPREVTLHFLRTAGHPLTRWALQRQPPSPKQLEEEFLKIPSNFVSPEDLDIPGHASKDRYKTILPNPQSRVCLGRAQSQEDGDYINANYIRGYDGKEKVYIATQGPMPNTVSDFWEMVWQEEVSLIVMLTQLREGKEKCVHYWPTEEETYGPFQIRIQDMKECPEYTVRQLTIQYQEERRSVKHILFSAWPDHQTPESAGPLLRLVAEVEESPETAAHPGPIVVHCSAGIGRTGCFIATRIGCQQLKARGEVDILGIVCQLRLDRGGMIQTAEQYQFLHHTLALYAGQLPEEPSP

[4] = molecular target: Glyceraldehyde-3-phosphate dehydrogenase (Homo sapiens, UniProt P04406)
[5] = molecular target: Heat shock cognate 71 kDa protein (Homo sapiens, UniProt P11142); assay: In Vitro Hsc70 Dose Response Fluorescence Polarization Assay. [Related pubchem assays: 1072 ]
Large T antigen = Large T antigen (Simian virus 40, UniProt P03070); format: functional, Betapolyomavirus macacae;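 note: Confirmatory-stage PubChem screen for compounds that inhibit SV40 T antigen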
[6] = molecular target: Heat shock 70 kDa protein 1A (Homo sapiens, UniProt P0DMV8); assay: inhibition of Hsp70 binding activity – biochemical, fluorescence polarization, SAR follow-up (AID 1072)
[7] = molecular target: T3, Dual specificity protein phosphatase 6 (Rattus norvegicus, UniProt Q64346);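 note: in vitro confirmatory secondary MKP-3 assay designed to detect irreversible or slow-binding inhibitors; recombinant His-tagged rat MKP-3 acting on the substrate OMFP; inhibitor potency from reduced phosphatase rate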
T3 sequence (Q64346 whole entry): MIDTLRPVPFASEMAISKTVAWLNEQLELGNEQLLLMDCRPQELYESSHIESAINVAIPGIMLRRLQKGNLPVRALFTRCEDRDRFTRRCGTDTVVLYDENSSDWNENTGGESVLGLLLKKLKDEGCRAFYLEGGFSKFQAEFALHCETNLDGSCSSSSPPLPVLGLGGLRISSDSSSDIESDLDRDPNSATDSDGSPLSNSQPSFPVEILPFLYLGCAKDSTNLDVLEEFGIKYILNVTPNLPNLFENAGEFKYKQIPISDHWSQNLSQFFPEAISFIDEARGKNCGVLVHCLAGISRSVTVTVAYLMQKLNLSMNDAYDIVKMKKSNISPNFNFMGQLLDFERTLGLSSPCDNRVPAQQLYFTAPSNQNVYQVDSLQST

[8] = molecular target: T3, Dual specificity protein phosphatase 6; assay: inhibition of rat DUSP6 enzyme activity – biochemical, in vitro, primary screen (AID 425)
[9] = molecular target: Induced myeloid leukemia cell differentiation protein Mcl-1 (Homo sapiens, UniProt Q07820); format: functional
[10] = molecular target: Eukaryotic translation initiation factor 4E (Mus musculus, UniProt P63073); assay: blockers of eIF4G binding by eIF4E – biochemical, TR-FRET, dose response (AID 855); format: functional;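 note: potency for disrupting eIF4E binding to eIF4GI seen as loss of FRET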
NS3 = NS3 (Hepatitis C virus, UniProt A3EZJ3); assay: NS3h DNA-binding inhibition IC50 – biochemical, fluorescence polarization, ChemBridge library, dose response (AID 743264)
NS3, sequence (A3EZJ3 whole entry): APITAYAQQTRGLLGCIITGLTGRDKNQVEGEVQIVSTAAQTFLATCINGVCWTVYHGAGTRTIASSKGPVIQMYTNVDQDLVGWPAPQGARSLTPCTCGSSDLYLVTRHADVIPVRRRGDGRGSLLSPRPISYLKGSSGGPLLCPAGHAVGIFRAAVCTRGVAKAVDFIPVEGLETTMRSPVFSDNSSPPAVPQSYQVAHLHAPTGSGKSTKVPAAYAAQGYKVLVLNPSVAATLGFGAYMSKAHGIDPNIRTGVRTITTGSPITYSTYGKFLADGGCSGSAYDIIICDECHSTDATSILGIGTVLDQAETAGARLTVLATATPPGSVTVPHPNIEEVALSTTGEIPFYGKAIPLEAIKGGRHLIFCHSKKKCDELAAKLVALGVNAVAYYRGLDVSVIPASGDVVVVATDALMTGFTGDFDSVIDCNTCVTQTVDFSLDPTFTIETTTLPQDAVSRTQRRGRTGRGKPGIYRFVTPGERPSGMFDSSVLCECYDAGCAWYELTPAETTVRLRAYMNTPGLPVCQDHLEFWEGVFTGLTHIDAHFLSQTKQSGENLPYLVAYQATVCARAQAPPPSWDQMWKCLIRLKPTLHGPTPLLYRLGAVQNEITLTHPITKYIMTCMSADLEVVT

Heat shock 70 kDa protein 1A, sequence (P0DMV8 whole entry): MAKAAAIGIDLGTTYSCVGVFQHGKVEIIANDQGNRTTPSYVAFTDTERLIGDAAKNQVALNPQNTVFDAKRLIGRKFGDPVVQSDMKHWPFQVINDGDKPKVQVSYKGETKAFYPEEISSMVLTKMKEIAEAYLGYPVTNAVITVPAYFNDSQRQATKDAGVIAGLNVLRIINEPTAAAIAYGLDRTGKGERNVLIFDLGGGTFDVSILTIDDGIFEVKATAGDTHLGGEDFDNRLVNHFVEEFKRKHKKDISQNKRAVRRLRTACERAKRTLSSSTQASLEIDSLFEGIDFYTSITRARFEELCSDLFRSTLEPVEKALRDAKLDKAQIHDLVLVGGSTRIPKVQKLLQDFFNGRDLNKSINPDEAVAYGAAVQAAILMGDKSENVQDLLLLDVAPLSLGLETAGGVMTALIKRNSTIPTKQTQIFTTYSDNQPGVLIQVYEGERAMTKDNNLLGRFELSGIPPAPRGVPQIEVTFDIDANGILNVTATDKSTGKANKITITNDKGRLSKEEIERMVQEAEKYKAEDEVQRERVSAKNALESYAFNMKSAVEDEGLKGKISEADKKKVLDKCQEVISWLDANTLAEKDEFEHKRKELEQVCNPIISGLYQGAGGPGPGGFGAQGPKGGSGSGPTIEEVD
Large T antigen, sequence (P03070 whole entry): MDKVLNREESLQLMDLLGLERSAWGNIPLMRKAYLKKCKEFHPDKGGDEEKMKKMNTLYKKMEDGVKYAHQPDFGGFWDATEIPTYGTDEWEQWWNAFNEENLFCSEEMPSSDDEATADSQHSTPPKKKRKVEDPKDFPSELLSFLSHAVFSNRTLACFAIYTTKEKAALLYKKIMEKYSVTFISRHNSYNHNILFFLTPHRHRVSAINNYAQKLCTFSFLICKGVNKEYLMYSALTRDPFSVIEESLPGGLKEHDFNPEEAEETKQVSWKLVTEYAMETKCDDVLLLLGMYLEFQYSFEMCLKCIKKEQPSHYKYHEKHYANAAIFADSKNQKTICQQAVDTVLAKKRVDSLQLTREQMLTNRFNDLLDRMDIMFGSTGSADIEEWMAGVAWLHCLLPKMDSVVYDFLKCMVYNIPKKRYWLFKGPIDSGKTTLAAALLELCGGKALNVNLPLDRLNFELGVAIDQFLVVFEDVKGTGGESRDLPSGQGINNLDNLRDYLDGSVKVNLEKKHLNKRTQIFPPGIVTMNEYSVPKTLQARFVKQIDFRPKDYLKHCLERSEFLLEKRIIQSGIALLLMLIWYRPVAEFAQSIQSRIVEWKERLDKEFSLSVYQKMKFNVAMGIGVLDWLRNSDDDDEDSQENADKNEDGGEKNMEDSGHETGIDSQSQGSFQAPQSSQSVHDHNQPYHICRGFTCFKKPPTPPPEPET
Heat shock cognate 71 kDa protein, sequence (P11142 whole entry): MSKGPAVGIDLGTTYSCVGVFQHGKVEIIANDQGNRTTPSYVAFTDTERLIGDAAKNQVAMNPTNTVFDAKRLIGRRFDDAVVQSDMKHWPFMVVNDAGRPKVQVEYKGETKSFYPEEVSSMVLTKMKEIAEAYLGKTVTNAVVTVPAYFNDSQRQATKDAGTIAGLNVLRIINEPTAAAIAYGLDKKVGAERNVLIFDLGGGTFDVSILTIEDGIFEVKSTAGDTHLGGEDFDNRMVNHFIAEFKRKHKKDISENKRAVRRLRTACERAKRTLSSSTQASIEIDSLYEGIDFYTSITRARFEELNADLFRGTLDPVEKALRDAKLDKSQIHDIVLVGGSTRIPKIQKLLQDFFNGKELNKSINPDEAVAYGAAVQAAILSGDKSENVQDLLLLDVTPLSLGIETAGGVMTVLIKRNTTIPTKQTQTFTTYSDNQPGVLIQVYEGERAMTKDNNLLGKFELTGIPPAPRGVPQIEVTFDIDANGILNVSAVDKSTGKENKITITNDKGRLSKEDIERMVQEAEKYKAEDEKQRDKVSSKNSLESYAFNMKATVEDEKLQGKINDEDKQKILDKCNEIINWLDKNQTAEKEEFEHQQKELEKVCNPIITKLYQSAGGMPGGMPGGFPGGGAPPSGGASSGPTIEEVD
Glyceraldehyde-3-phosphate dehydrogenase, sequence (P04406 whole entry): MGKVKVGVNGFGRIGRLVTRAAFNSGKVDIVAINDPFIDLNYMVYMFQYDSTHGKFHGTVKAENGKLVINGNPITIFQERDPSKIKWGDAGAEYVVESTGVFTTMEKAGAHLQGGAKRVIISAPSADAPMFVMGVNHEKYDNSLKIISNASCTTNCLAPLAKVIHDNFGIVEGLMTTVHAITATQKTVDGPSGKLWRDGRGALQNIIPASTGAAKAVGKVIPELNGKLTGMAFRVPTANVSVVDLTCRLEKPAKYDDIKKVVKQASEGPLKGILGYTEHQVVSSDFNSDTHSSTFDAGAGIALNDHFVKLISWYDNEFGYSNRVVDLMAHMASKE
Eukaryotic translation initiation factor 4E, sequence (P63073 whole entry): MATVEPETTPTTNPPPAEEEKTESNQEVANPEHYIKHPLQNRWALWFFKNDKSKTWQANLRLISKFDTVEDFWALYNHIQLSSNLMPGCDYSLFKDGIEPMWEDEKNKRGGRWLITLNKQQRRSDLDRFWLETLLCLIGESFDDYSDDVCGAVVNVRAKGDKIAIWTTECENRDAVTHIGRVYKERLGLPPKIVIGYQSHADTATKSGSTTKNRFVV
Induced myeloid leukemia cell differentiation protein Mcl-1, sequence (Q07820 whole entry): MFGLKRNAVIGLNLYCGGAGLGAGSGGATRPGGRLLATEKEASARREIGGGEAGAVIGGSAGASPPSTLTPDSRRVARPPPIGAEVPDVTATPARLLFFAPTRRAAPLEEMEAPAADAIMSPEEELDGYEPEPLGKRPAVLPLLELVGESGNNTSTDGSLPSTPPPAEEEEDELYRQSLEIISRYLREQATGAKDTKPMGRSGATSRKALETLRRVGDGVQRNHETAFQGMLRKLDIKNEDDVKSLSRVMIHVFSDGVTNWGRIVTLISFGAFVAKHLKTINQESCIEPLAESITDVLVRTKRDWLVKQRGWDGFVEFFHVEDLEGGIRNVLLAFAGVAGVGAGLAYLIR

IC50 [3]	IC50 [4]	IC50 [5]	IC50 (Large T antigen)	IC50 [6]	IC50 [7]	IC50 [8]	IC50 [9]	IC50 [10]	IC50 (NS3)	SMILES	CC50 [1]	EC50 [2]	IC50 (cells)
										COc1ccc(C(=O)N/C(=C\c2cccs2)c2nc3ccccc3[nH]2)cc1OC	> 50 µM (active)	> 195 µM (not active)	25.6 µM (active)
15.6 µM (active)	70.7 µM (active)	> 100 µM (not active)	9.1 µM (active)	4.77 µM (active)	8 µM (active)	> 10 µM (not active)	> 54 µM (active)	5.44 µM (active)	37.5 µM (inactive)	Cc1ccc2c(c1)C1C=CCC1C(C(=O)O)N2 (stereo not drawn)			
